The assay deals with patients with advanced solid tumors. Briefly: Phase I trial of single administration of Vactosertib, tumor assessment (anti-tumor activity). The assay is classed as in vivo, human. An excerpt:
A ‘responder’ refers to a Patient whose best overall response on treatment was stable disease (SD) or greater, and a ‘non-responder’ refers to a patient whose best overall response on treatment was progression on disease (PD) or worse. The unit for all data of gene expression is TPM (Transcripts Per Kilobase Million). The CD8A gene is implicated in playing an important role in the immune response. The cytolytic score is used to assess anticancer immunity. […]
In particular, the F-TBRS and the cytolytic score in cancer of responders and non-responders at the Phase I trial of single administration of Vactosertib (the compound represented by Formula II; TEW-7197) were analyzed and the results were shown in FIG. 3.
In addition, the EMT/F-TBRS expression distribution from the TCGA database of bladder cancer was analyzed and the results are shown in FIG. 4. […]

The values below come from patent US20210238698A1, “METHODS OF DIAGNOSING AND TREATING CANCER PATIENTS EXPRESSING HIGH LEVELS OF TGF-B RESPONSE SIGNATURE” (MEDPACTO, INC., priority 2018, published 2021).

Consider `Cc1cccc(-c2[nH]c(CNc3ccccc3F)nc2-c2ccc3ncnn3c2)n1` [Vactosertib, N-((4-([1,2,4]triazolo[1,5-a]pyridin-6-yl)-5-(6-methylpyridin-2-yl)-1H-imidazol-2-yl)methyl)-2-fluoroaniline], for which, where the note is “Phase I, higher doses (≥140 mg, qd)”, the “patients who achieved SD (stable disease, responder)” value was “seven”. Further, for the setting “one patient with bladder cancer at the Phase I trial, high EMT/F-TBRS expression”, the tumor shrinkage is −25%.
